Assay [1] concerns the target PI3KC3 (hVPS34) kinase (Homo sapiens (Human), UniProt Q8NEB9). The assay can be described thus: PI3KC3 (hVPS34) kinase assay, ADP-Glo luminescence detection. The class given is biochemical. Particulars: PI:PS lipid substrate, 60 min at 30° C., read-out: VPS34 IC50. The procedure:
The PI3KC3 (hVPS34) kinase reactions utilize ATP and produce ADP as a byproduct. The ADP production is quantified by ADP-Glo luminescence detection. The PI3KC3 (hVPS34) kinase assay was performed by Reaction Biology Corp. (Malvern, Pa.).
This was a 3-step reaction: First, the kinase reaction with lipid substrate was carried out in the presence of ATP. The reaction was then quenched, and the remaining ATP depleted with ADP-Glo™ reagent. Finally, the ADP was converted to ATP, which is measured using a luciferase/luciferin reaction. The luminescence was converted into μM ADP production based on ADP standard curves. The nonlinear regression to obtain the standard curve and IC50 values were performed using Graphpad Prism software.
The substrate (Phosphatidylinositol (PI): Phosphatidylserine (PS)) was added to freshly prepared reaction buffer (40 mM Tris-HCl (pH7.5), 3 μM Orthovanadate, 20 mM MgCl2, 2 mM DTT, 0.05% CHAPS, 1% DMSO). The PI3KC3 (hVPS34) kinase was delivered into the substrate solution with gentle mixing. Compounds were delivered in 100% DMSO into the kinase reaction mixture by Acoustic technology (Echo550; nanoliter range). The reaction was incubated for 20 min at room temperature. ATP was delivered into the reaction mixture to initiate the reaction. After incubating the mixture for 60 min at 30° C., the reaction was quenched with ADP-Glo reagent (Promega ADP Glo Kinase Assay kit #V9102) and incubated for 40 min at room temperature. Detection mixture (Promega ADP Glo Kinase Assay kit #V9102) was added and the reaction was incubated for 30 minutes. Luminescence was measured.

Assay [2] deals with PI3Kα (Homo sapiens (Human), UniProt P42336). The assay can be described thus: PI3Kα inhibition, ATP to ADP conversion by ADP-Glo kinase activity assay. Particulars: 25 μM PIP2:PS, 60 μM ATP, reaction time 30 minutes. In kind it is biochemical. The procedure: Inhibition of PI3Kα—Quantification of ATP to ADP conversion as a measure of PI3Kα activity. Active PI3Kα (Life Technologies), in the presence or absence of PI3Kα inhibitor, was reacted with PIP2:PS (Life Technologies), a substrate specifically optimized for use with Class I PI3 kinases, and ultrapure ATP (Promega). The conversion of ATP to ADP by PI3Kα was measured as luminescence signal via Promega ADP-Glo kinase activity assay. Assay was validated using published PI3Kα inhibitors LY294002, PI-103, BYL719, and GDC0198 as well as a DMSO vehicle control.
Sequence of PI3Kα (P42336 whole entry): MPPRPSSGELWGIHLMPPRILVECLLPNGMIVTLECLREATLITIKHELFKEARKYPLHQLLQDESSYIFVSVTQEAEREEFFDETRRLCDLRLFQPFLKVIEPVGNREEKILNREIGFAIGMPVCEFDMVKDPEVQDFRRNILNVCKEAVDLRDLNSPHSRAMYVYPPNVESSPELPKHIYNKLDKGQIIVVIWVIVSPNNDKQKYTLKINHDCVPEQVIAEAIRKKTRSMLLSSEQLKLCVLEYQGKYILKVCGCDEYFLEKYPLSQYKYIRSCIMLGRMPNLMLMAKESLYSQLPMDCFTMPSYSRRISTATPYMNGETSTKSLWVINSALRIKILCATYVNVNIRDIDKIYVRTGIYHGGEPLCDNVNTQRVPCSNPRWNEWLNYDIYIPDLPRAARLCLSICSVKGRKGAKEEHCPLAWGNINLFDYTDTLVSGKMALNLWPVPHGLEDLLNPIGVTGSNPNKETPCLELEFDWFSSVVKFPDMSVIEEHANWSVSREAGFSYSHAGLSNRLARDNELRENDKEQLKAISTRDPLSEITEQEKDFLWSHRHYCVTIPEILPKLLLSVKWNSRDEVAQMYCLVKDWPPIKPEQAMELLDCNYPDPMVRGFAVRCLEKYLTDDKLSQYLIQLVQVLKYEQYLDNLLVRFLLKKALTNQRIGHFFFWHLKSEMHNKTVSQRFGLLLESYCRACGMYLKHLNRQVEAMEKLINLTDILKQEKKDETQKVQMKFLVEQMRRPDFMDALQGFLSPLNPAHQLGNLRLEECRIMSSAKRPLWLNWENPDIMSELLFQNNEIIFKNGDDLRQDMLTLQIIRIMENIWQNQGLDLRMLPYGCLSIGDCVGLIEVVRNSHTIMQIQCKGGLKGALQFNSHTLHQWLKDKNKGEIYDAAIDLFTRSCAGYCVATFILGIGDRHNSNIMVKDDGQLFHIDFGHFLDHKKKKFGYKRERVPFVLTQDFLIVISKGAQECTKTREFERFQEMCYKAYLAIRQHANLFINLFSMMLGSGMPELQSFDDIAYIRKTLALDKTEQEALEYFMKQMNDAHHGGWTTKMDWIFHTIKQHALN
Sequence of PI3Kα (P27986 whole entry partner): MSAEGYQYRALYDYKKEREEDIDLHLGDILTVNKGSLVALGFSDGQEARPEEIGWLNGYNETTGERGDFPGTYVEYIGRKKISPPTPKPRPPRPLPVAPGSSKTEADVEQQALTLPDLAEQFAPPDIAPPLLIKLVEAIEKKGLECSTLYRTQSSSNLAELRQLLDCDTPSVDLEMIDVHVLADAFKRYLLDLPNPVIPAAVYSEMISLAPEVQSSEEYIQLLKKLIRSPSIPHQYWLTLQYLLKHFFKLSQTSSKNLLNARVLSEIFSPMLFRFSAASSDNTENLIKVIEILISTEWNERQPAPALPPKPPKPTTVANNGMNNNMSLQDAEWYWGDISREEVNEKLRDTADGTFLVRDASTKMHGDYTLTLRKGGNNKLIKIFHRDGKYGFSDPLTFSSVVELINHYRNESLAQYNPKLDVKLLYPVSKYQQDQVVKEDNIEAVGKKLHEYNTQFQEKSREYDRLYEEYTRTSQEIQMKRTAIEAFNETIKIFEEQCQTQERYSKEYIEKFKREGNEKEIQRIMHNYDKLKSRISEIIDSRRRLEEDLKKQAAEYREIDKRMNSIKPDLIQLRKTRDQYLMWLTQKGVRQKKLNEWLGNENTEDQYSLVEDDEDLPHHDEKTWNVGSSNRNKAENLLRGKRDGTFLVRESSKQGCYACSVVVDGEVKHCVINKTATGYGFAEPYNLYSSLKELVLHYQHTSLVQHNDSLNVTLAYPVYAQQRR
Compounds were prepared at 100× final concentration using a 12-point, 1:3 serial-dilution in DMSO, with DMSO control as the 12th point. Compound was then diluted in HEPES buffer (25 mM HEPES pH 7.5, 1 mM EGTA, 0.3% CHAPS) prior to addition to PI3Kα. Active PI3Kα diluted to 0.24 ng/μL (1.1 nM) in (50 mM HEPES pH 7.5, 6 mM MgCl2, 1 mM EGTA, 200 mM NaCl, 0.03% CHAPS, 8 mM DTT) was incubated with compound for 0 hr and 3 hr prior to the start of the reaction. 25 μM PIP2:PS and 60 μM ATP were diluted from stock solution (25 mM HEPES pH 7.5, 1 mM EGTA, 0.3% CHAPS) and added to initiate the PI3Kα reaction. Reaction time was 30 minutes. ATP to ADP conversion was measured in Luminescence Counts on DTX880 Plate Reader (Beckman Coulter). The IC50 of the compounds were reported using the GraphPad Prism software. Analytical method was non-linear regression, 4-parameter curve fit with bottom fit to validated PI3Kα inhibitor reference controls and no top fit (floating top).
For orientation: ADP-Glo turns the ADP formed in a reaction into a luminescent signal.

For orientation: IC50 means the concentration that inhibits the measured activity by half.

Sequence of PI3KC3 (hVPS34) kinase (Q8NEB9 whole entry): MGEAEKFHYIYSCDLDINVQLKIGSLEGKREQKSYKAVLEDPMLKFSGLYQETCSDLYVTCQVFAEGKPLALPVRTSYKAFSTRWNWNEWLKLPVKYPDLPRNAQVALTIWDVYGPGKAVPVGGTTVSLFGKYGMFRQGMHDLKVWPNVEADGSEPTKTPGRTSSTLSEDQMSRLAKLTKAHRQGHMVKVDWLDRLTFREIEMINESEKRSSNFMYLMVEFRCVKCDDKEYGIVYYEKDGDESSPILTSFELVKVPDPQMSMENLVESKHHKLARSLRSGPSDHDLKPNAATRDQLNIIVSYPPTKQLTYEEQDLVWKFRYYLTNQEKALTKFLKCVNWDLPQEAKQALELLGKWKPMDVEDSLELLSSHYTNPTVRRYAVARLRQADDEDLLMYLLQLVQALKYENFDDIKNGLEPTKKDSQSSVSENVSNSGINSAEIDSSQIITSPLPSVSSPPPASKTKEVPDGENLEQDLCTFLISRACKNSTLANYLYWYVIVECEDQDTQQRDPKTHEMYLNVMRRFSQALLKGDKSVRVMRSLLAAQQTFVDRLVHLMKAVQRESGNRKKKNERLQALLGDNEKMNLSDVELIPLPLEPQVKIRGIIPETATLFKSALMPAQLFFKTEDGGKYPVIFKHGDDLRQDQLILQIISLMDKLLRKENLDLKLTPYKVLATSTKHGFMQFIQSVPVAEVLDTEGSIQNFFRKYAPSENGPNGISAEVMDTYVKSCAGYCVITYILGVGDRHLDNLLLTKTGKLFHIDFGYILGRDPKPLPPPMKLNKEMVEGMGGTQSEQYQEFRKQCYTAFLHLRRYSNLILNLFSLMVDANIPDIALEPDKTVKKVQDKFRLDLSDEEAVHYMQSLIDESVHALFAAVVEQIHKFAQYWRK

On to `Nc1ncc(-c2cc(N3CCOCC3)cc(S(=O)(=O)[C@@H]3CCOC3)c2)s1` [Example 1, (R)-5-(3-morpholino-5-((tetrahydrofuran-3-yl)sulfonyl)phenyl)thiazol-2-amine], for which the IC50 in assay [1] was 3.8 µM; in assay [2] it was 0.75 µM.
With `Nc1nc(C(F)(F)F)c(-c2cc(N3CCOCC3)cc(S(=O)(=O)[C@@H]3CCOC3)c2)s1` [Example 2, (R)-5-(3-morpholino-5-((tetrahydrofuran-3-yl)sulfonyl)phenyl)-4-(trifluoromethyl)thiazol-2-amine], the IC50 in assay [1] stood at 2.1 µM; in assay [2] it was 0.74 µM.
Consider `Nc1nnc(-c2cc(N3CCOCC3)cc(S(=O)(=O)c3ccccc3)c2)s1` [Example 3, 5-(3-morpholino-5-(phenylsulfonyl)phenyl)-1,3,4-thiadiazol-2-amine], for which the IC50 was determined as 1.6 µM in assay [1] and 2.2 µM in assay [2].
The like results for `Nc1nsc(-c2cc(N3CCOCC3)cc(S(=O)(=O)c3ccccc3)c2)n1` [Example 4, 5-(3-morpholino-5-(phenylsulfonyl)phenyl)-1,2,4-thiadiazol-3-amine] were, in that order, 2.2 µM and 11.2 µM.
As for `Nc1ncc(-c2cc(S(=O)(=O)c3ccccc3)cc(N3CCOCC3)n2)s1` [Example 5, 5-(6-morpholino-4-(phenylsulfonyl)pyridin-2-yl)thiazol-2-amine], the values for the IC50 in assay [1] and in assay [2] were 0.081 µM and 0.502 µM, respectively.
Turning to `Nc1nc(C(F)(F)F)c(-c2cc(S(=O)(=O)c3ccccc3)cc(N3CCOCC3)n2)s1` [Example 6, 5-(6-morpholino-4-(phenylsulfonyl)pyridin-2-yl)-4-(trifluoromethyl)thiazol-2-amine], the results for the IC50 in assay [1] and in assay [2] were 0.287 µM and 5.24 µM, respectively.
In the same order, the values of `Cc1nc(N)sc1-c1cc(S(=O)(=O)c2ccccc2)cc(N2CCOCC2)n1` [Example 7, 4-methyl-5-(6-morpholino-4-(phenylsulfonyl)pyridin-2-yl)thiazol-2-amine] are 0.019 µM and 2.3 µM.
Take `Nc1ncc(-c2cc(Oc3ccccc3)cc(N3CCOCC3)n2)s1` [Example 8, 5-(6-morpholino-4-phenoxypyridin-2-yl)thiazol-2-amine]: the IC50 in assay [1] amounted to 0.15 µM; in assay [2], 3.42 µM.

These data come from patent US11236079B2, “Morpholine derivates as inhibitors of Vps34” (Neuropore Therapies, Inc., priority 2018, dated 2022).
